Data on 16 compounds can be found in patent US8916557B2, “Substituted 4-Aryl-N-phenyl-1,3,5-triazin-2-amines” (Bayer Intellectual Property GmbH, priority 2011, dated 2014).

The structures appear in SMILES notation. Where only a bound is given, the exact number is not on record here.

One assay deals with T1, CDK9/CycT1 (Homo sapiens, UniProt P50750).
T1 construct: Recombinant full-length His-tagged human CDK9 and CycT1; His; purchased Invitrogen PV4131; host or cells: insect cells
As to the kind of experiment: CDK9/CycT1 kinase assay (TR-FRET). The class given is biochemical. The following applies: Method 1, 10 μM ATP. An excerpt: 1. CDK9/CycT1 Kinase Assay:
CDK9/CycT1-inhibitory activity of compounds of the present invention was quantified employing the CDK9/CycT1 TR-FRET assay as described in the following paragraphs:
Recombinant full-length His-tagged human CDK9 and CycT1, expressed in insect cells and purified by Ni-NTA affinity chromatography, were purchased from Invitrogen (Cat. No PV4131). As substrate for the kinase reaction biotinylated peptide biotin-Ttds-[…] (C-terminus in amid form) was used which can be purchased e.g. form the company JERINI Peptide Technologies (Berlin, Germany). For the assay 50 nl of a 100fold concentrated solution of the test compound in DMSO was pipetted into a black low volume 384well microtiter plate (Greiner Bio-One, Frickenhausen, Germany), 2 μl of a solution of CDK9/CycT1 in aqueous assay buffer [50 mM Tris/HCl pH 8.0, 10 mM MgCl2, 1.0 mM dithiothreitol, 0.1 mM sodium ortho-vanadate, 0.01% (v/v) Nonidet-P40 (Sigma)] were added and the mixture was incubated for 15 min at 22° C. to allow pre-binding of the test compounds to the enzyme before the start of the kinase reaction. Then the kinase reaction was started by the addition of 3 μl of a solution of adenosine-tri-phosphate (ATP, 16.7 μM=>final conc. in the 5 μl assay volume is 10 μM) and substrate (1.67 μM=>final conc. in the 5 μl assay volume is 1 μM) in assay buffer and the resulting mixture was incubated for a reaction time of 25 min at 22° C. The concentration of CDK9/CycT1 was adjusted depending of the activity of the enzyme lot and was chosen appropriate to have the assay in the linear range, typical concentrations were in the range of 1 μg/ml. The reaction was stopped by the addition of 5 μl of a solution of TR-FRET detection reagents (0.2 μM streptavidine-XL665 [Cisbio Bioassays, Codolet, France] and 1 nM anti-RB(pSer807/pSer811)-antibody from BD Pharmingen [#558389] and 1.2 nM LANCE EU-W1024 labeled anti-mouse IgG antibody [Perkin-Elmer, product no. AD0077]) in an aqueous EDTA-solution (100 mM EDTA, 0.2% (w/v) bovine serum albumin in 100 mM HEPES/NaOH pH 7.0).
(§1) The resulting mixture was incubated 1 h at 22° C. to allow the formation of complex between the phosphorylated biotinylated peptide and the detection reagents. Subsequently the amount of phosphorylated substrate was evaluated by measurement of the resonance energy transfer from the Eu-chelate to the streptavidine-XL. Therefore, the fluorescence emissions at 620 nm and 665 nm after excitation at 350 nm was measured in a HTRF reader, e.g. a Rubystar (BMG Labtechnologies, Offenburg, Germany) or a Viewlux (Perkin-Elmer). The ratio of the emissions at 665 nm and at 622 nm was taken as the measure for the amount of phosphorylated substrate.
(TR-FRET usually uses a lanthanide donor and a delayed reading to cut background.)

For assay [1], the system named is HeLa human cervical tumour cells. Nature of the assay: Proliferation assay (crystal violet), HeLa. Format: cell-based. Particulars: read-out: Inhibition of HeLa cell proliferation.
A further assay addresses T2, CDK2/CycE (Homo sapiens, UniProt P24941).
T2 construct: GST; purchased ProQinase GmbH (Freiburg, Germany); host or cells: insect cells (Sf9)
Nature of the assay: CDK2/CycE kinase assay (TR-FRET). Format: biochemical. Particulars: Method 2, 10 μM ATP.
Source text: 2. CDK2/CycE Kinase Assay:
CDK2/CycE-inhibitory activity of compounds of the present invention was quantified employing the CDK2/CycE TR-FRET assay as described in the following paragraphs:
Recombinant fusion proteins of GST and human CDK2 and of GST and human CycE, expressed in insect cells (Sf9) and purified by Glutathion-Sepharose affinity chromatography, were purchased from ProQinase GmbH (Freiburg, Germany). As substrate for the kinase reaction biotinylated peptide biotin-Ttds-[…] (C-terminus in amid form) was used which can be purchased e.g. form the company JERINI Peptide Technologies (Berlin, Germany).
For the assay 50 nl of a 100fold concentrated solution of the test compound in DMSO was pipetted into a black low volume 384well microtiter plate (Greiner Bio-One, Frickenhausen, Germany), 2 μl of a solution of CDK2/CycE in aqueous assay buffer [50 mM Tris/HCl pH 8.0, 10 mM MgCl2, 1.0 mM dithiothreitol, 0.1 mM sodium ortho-vanadate, 0.01% (v/v) Nonidet-P40 (Sigma)] were added and the mixture was incubated for […] at 22° C. to allow pre-binding of the test compounds to the enzyme before the start of the kinase reaction. Then the kinase reaction was started by the addition of 3 μl of a solution of adenosine-tri-phosphate (ATP, 16.7 μM=>final conc. in the 5 it assay volume is 10 μM) and substrate (1.25 μM=>final conc. in the 5 it assay volume is 0.75 μM) in assay buffer and the resulting mixture was incubated for a reaction time of […] at 22° C. The concentration of CDK2/CycE was adjusted depending of the activity of the enzyme lot and was chosen appropriate to have the assay in the linear range, typical concentrations were in the range of 130 ng/ml. The reaction was stopped by the addition of 5 it of a solution of TR-FRET detection reagents (0.2 μM streptavidine-XL665 [Cisbio Bioassays, Codolet, France] and 1 nM anti-RB(pSer807/pSer811)-antibody from BD Pharmingen [#558389] and 1.2 nM LANCE EU-W1024 labeled anti-mouse IgG antibody [Perkin-Elmer, product no. AD0077]) in an aqueous EDTA-solution (100 mM EDTA, 0.2% (w/v) bovine serum albumin in 100 mM HEPES/NaOH pH 7.0).
as §1, with “TR-FRET” for “HTRF”

T1 sequence (P50750 whole entry): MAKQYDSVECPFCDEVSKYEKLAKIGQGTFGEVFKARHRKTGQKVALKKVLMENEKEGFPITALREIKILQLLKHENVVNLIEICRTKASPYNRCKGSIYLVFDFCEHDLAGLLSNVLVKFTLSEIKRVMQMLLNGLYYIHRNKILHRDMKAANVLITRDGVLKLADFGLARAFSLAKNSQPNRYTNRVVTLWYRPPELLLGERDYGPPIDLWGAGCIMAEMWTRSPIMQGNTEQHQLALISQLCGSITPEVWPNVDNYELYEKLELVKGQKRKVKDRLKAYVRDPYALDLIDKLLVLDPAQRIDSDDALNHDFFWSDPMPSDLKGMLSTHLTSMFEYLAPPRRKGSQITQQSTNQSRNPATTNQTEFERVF
T1 sequence (O60563 whole entry partner): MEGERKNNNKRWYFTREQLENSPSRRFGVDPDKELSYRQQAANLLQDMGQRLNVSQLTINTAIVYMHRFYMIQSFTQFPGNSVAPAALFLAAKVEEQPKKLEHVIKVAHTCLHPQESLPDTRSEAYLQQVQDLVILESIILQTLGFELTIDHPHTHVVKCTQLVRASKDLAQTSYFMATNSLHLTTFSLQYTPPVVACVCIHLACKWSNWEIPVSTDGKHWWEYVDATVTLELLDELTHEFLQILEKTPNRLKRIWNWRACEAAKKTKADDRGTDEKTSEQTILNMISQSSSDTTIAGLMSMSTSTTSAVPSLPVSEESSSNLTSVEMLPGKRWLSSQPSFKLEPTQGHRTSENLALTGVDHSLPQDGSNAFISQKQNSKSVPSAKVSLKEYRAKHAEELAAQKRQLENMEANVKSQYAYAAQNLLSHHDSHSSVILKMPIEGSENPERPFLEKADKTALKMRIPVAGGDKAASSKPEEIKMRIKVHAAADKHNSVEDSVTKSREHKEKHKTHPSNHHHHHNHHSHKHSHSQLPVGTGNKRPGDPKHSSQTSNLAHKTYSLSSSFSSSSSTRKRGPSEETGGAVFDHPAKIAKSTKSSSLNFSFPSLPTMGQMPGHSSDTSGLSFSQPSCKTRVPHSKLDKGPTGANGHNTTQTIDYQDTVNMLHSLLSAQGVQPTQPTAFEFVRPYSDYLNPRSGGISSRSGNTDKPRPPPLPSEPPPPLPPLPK

For the compound `CS(=O)(=O)Cc1cccc(Nc2ncnc(-c3ccc(F)cc3OCc3cc(F)cc(C(F)(F)F)c3)n2)c1` [Example 78, 4-(4-Fluoro-2-{[3-fluoro-5-(trifluoromethyl)benzyl]oxy}phenyl)-N-{3-[(methylsulfonyl)-methyl]-phenyl}-1,3,5-triazin-2-amine], the IC50 against CDK9/CycT1 came out at 4 nM; in assay [1] it was 950 nM.
Turning to `CC(C)COc1cc(F)ccc1-c1ncnc(Nc2cccc(CS(C)(=O)=O)c2)n1` [Example 58, 4-[4-Fluoro-2-(2-methylpropoxy)phenyl]-N-{3-[(methylsulfonyl)methyl]phenyl}-1,3,5-triazin-2-amine], the IC50 against CDK9/CycT1 came out at 46 nM; on CDK2/CycE, 5100 nM; in assay [1] it was 1700 nM.
On to `CC1(COc2cc(F)ccc2-c2ncnc(Nc3cccc(CS(C)(=O)=O)c3)n2)CC1` [Example 49, 4-{4-Fluoro-2-[(1-methylcyclopropyl)methoxy]phenyl}-N-{3-[(methylsulfonyl)-methyl]phenyl}-1,3,5-triazin-2-amine], for which the results for the IC50 (on CDK9/CycT1; on CDK2/CycE; in assay [1]) were 11 nM, 640 nM and 1200 nM, respectively.
The matching figures for `CS(=O)(=O)Cc1cccc(Nc2ncnc(-c3ccc(F)cc3OCc3ccc(C(F)(F)F)cc3)n2)c1` [Example 73, 4-(4-Fluoro-2-{[4-(trifluoromethyl)benzyl]-oxy}phenyl)-N-{3-[(methylsulfonyl)-methyl]phenyl}-1,3,5-triazin-2-amine]: 12 nM, no less than 20000 nM and 1100 nM.
The matching figures for `CC(C)S(=O)(=O)Cc1cccc(Nc2ncnc(-c3cc(F)ccc3OCc3cccc(F)c3)n2)c1` [Example 38, 4-{5-Fluoro-2-[(3-fluorobenzyl)oxy]phenyl}-N-{3-[(prop-2-ylsulfonyl)methyl]phenyl}-1,3,5-triazin-2-amine]: 6 nM, 320 nM and 840 nM.
Consider `CS(=O)(=O)Cc1cccc(Nc2ncnc(-c3ccccc3OCc3ccc(F)cc3)n2)c1` [Example 25, 4-{2-[(4-Fluorobenzyl)oxy]phenyl}-N-{3-[(methylsulfonyl)methyl]phenyl}-1,3,5-triazin-2-amine], for which the IC50 against CDK9/CycT1 is 7 nM; against CDK2/CycE it was 1100 nM; in assay [1] it was 760 nM.
With `CC(C)CCCOc1cc(F)ccc1-c1ncnc(Nc2cccc(CS(C)(=O)=O)c2)n1` [Example 47, 4-{4-Fluoro-2-[(4-methylpentyl)oxy]phenyl}-N-{3-[(methylsulfonyl)-methyl]phenyl}-1,3,5-triazin-2-amine], the IC50 is 5 nM on CDK9/CycT1, 1200 nM against CDK2/CycE and 1000 nM in assay [1].
With `COc1cc(F)ccc1-c1ncnc(Nc2cc(Cl)cc(CS(C)(=O)=O)c2)n1` [Example 39, N-{5-Chloro-3-[(methylsulfonyl)methyl]phenyl}-4-(4-fluoro-2-methoxyphenyl)-1,3,5-triazin-2-amine], the IC50 against CDK9/CycT1 is 9 nM; against CDK2/CycE, 190 nM; in assay [1] it was 280 nM.
For `CS(=O)(=O)Cc1cccc(Nc2ncnc(-c3ccc(F)cc3OCCC3CC3)n2)c1` [Example 48, 4-[2-(2-Cyclopropylethoxy)-4-fluorophenyl]-N-{3-[(methylsulfonyl)methyl]phenyl}-1,3,5-triazin-2-amine], the IC50 against CDK9/CycT1 was 29 nM; at CDK2/CycE, 1300 nM; in assay [1] it was 1000 nM.
With `[2H]C([2H])([2H])Oc1ccccc1-c1ncnc(Nc2cccc(CS(C)(=O)=O)c2)n1` [Example 22, 4-{2-[(^2H3)methyloxy]phenyl}-N-{3-[(methylsulfonyl)methyl]phenyl}-1,3,5-triazin-2-amine], the IC50 against CDK9/CycT1 worked out at 23 nM; against CDK2/CycE it was 2500 nM; in assay [1] it was 1400 nM.
Regarding `CC(C)S(=O)(=O)Cc1cccc(Nc2ncnc(-c3ccccc3OCc3ccc(F)cc3)n2)c1` [Example 37, 4-{2-[(4-Fluorobenzyl)oxy]phenyl}-N-{3-[(prop-2-ylsulfonyl)methyl]phenyl}-1,3,5-triazin-2-amine], the IC50 against CDK9/CycT1 came to 9 nM; against CDK2/CycE, 2500 nM; in assay [1] it was 1100 nM.
For `CS(=O)(=O)Cc1cccc(Nc2ncnc(-c3ccc(F)cc3OCc3cc(F)ccc3F)n2)c1` [Example 81, 4-{2-[(2,5-Difluorobenzyl)-oxy]-4-fluorophenyl}-N-{3-[(methylsulfonyl)methyl]phenyl}-1,3,5-triazin-2-amine], the IC50 came out at 5 nM on CDK9/CycT1 and 820 nM in assay [1].
Take `CS(=O)(=O)Cc1cccc(Nc2ncnc(-c3ccc(F)cc3OC3CCCC3)n2)c1` [Example 65, 4-[2-(Cyclopentyloxy)-4-fluorophenyl]-N-{3-[(methylsulfonyl)methyl]phenyl}-1,3,5-triazin-2-amine]: the results for the IC50 on CDK9/CycT1 and against CDK2/CycE were 36 nM and 2300 nM, respectively.
On to `COc1ccc(F)cc1-c1ncnc(Nc2cccc(CS(C)(=O)=O)c2)n1` [Example 11, 4-(5-Fluoro-2-methoxyphenyl)-N-{3-[(methylsulfonyl)methyl]phenyl}-1,3,5-triazin-2-amine], for which the IC50 on CDK9/CycT1 was 33 nM; on CDK2/CycE, 1300 nM.
Taken in the same sequence, the figures for `CC(C)Oc1cc(F)ccc1-c1ncnc(Nc2cccc(CS(C)(=O)=O)c2)n1` [Example 5, 4-[4-Fluoro-2-(propan-2-yloxy)phenyl]-N-{3-[(methylsulfonyl)methyl]phenyl}-1,3,5-triazin-2-amine] were 25 nM and 1400 nM.
For the compound `CS(=O)(=O)Cc1cccc(Nc2ncnc(-c3ccc(F)cc3OCc3cc(F)c(F)cc3F)n2)c1` [Example 75, 4-{4-Fluoro-2-[(2,4,5-trifluorobenzyl)oxy]phenyl}-N-{3-[(methylsulfonyl)-methyl]phenyl}-1,3,5-triazin-2-amine], the IC50 against CDK9/CycT1 was 6 nM; in assay [1] it was 1100 nM.
